We go through eight compounds from ChEMBL document CHEMBL1201862, “PubChem BioAssay data set” (2004).

Assay in all cases: NCI tumour cell line growth inhibition, 48 h
The test system of assay [1] is A498.
Assay [2] has as its system SR.
Assay [3] has as its system M14.
In assay [4] the test system is UO-31.
Assay [5] concerns SF-539.
In assay [6] the test system is SF-268.
The subject of assay [7] is OVCAR-4.
Assay [8] deals with MDA-MB-231.
In assay [9] the test system is SK-MEL-28.
Assay [10] relates to COLO 205.
Assay [11] has as its system KM12.
For assay [12], the system named is NCI/ADR-RES.
Assay [13] concerns K562.
The test system of assay [14] is HT-29.
Assay [15] has as its system ACHN.
The test system of assay [16] is NCI-H23.
In assay [17] the test system is SF-295.
Assay [18] has as its system IGROV-1.
Assay [19] deals with NCI-H460.
Assay [20] concerns CAKI-1.

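Following 48 hours of exposure in 96-well plates, responses at five concentrations were used to interpolate endpoints linearly. GI50 marks 50% less growth.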 Active and inactive are the calls of the source. Cut-off read from the data, not from the text of the source: active = GI50 up to about 1.1 µM and inactive = higher. Where only a bound is given, the exact number is not on record here.

Take `CC1CCCN1CCCOC(=O)c1ccc(OC2C=CCCC2)cc1` (configuration not stated): the GI50 in assay [1] is 67.1 µM (inactive); in [2], 28.1 µM (inactive); in assay [3], 16.2 µM (inactive); in assay [4], 34.2 µM (inactive); in assay [5], 25.6 µM (inactive); in [6] it was 37.8 µM (inactive). Further, the GI50 was 50 µM (inactive) in [7]; 18.1 µM (inactive) in [8]; 54.7 µM (inactive) in assay [9]; 16.6 µM (inactive) in [10]; 38.2 µM (inactive) in [11]; 48.3 µM (inactive) in assay [12]. The GI50 in assay [13] was 18.9 µM (inactive); in [14] it was 17.7 µM (inactive); in assay [15], 33.5 µM (inactive); in assay [16] it was 25.4 µM (inactive); in [17], 16.5 µM (inactive); in assay [18], 21.4 µM (inactive). Besides, in assay [19], the GI50 was 17.1 µM (inactive).
`NC(=O)C(=O)c1ncn(Cc2ccccc2)c1N`: the GI50 in [1], in [2], in assay [3], in assay [5], in assay [6] and in assay [7] was > 100 µM (inactive) throughout. For the same compound, the GI50 in assay [8], in assay [9], in assay [10], in assay [11], in [12] and in assay [20] was > 100 µM (inactive) throughout. Besides, the GI50 in [13], in assay [14], in [15], in assay [16], in assay [17] and in assay [18] was > 100 µM (inactive) each time. In addition, the GI50 in [19] is > 100 µM (inactive).
As for `COC(=O)Nc1nc2ccc(S(=O)(=O)SC)cc2[nH]1`, the GI50 in assay [1] was 16.3 µM (inactive); in assay [2], 3.72 µM (inactive); in [3] it was 3.4 µM (inactive); in assay [5], 4 µM (inactive); in [6] it was 16.5 µM (inactive); in assay [7] it was 11.9 µM (inactive). Besides, the GI50 in assay [8] is 11.6 µM (inactive); in assay [9], 8.28 µM (inactive); in assay [10], 4.28 µM (inactive); in [11], 5.45 µM (inactive); in assay [12] it was 3.61 µM (inactive); in assay [20], 4.88 µM (inactive). Besides, the GI50 in [13] is 4.86 µM (inactive); in assay [14], 3.28 µM (inactive); in [15], 10.2 µM (inactive); in assay [17] it was 7.8 µM (inactive); in [18], 3.37 µM (inactive); in assay [19] it was 5.2 µM (inactive).
On to `COC1C(O)C(C)OC(O[C@@H]2C[C@H]3CC[C@@H]4[C@H](CC[C@]5(C)[C@@H](C6=CC(=O)OC6)CC[C@]45O)[C@@]3(C)[C@H](O)C2)C1O` (some centres not stated), for which the GI50 is 0.0525 µM (active) in assay [1]; 0.0766 µM (active) in assay [2]; 0.0741 µM (active) in assay [3]; < 0.01 µM (active) in [5]; < 0.0272 µM (active) in assay [6]; 0.057 µM (active) in [7]. Also, the GI50 was 0.313 µM (active) in [8]; 0.216 µM (active) in assay [9]; 0.191 µM (active) in [10]; 0.296 µM (active) in assay [11]; < 0.0443 µM (active) in assay [12]; 0.0225 µM (active) in [20]. Besides, the GI50 is 0.0785 µM (active) in assay [13]; 0.0849 µM (active) in assay [14]; < 0.0212 µM (active) in [15]; 0.0262 µM (active) in [16]; < 0.0371 µM (active) in assay [17]; 0.145 µM (active) in assay [18]. The GI50 in assay [19] is 0.0347 µM (active).
Turning to `CCN1CCCCCCCCCC(=N/O)/C(=N\O)C1`, the GI50 in assay [1], in assay [2], in assay [3], in [4], in assay [5] and in assay [6] was > 100 µM (inactive) in each case. Also, the GI50 in [8], in assay [9], in assay [11], in assay [12], in assay [20] and in assay [13] was > 100 µM (inactive) each time. The GI50 in assay [14], in [15], in assay [16], in assay [17], in assay [18] and in assay [19] was > 100 µM (inactive) in each case.
Take `COCCOCCOCCOc1ccc(C(C#N)N(CCc2ccccc2)C(=O)c2cc(C(=O)N(CCc3ccccc3)C(C#N)c3ccc(OCCOCCOCCOC)cc3)cc(C(=O)N(CCc3ccccc3)C(C#N)c3ccc(OCCOCCOCCOC)cc3)c2)cc1` (configuration not stated): the GI50 in [1], in assay [2], in [3], in [4], in [5] and in assay [6] was > 100 µM (inactive) in each case. Also, the GI50 in [7], in assay [8], in [9], in [10], in assay [11] and in assay [12] was > 100 µM (inactive) each time. The GI50 in [13], in assay [14], in assay [15], in assay [16], in [17] and in assay [18] was > 100 µM (inactive) each time. In addition, the GI50 in [19] is > 100 µM (inactive).
`CC1(C)Oc2ccc3c(=O)cc(-c4ccc(F)cc4)oc3c2C1C(=O)O` (configuration not stated): the GI50 in assay [1], in [2], in assay [3], in [5], in assay [6] and in assay [8] was > 100 µM (inactive) throughout. Further, the GI50 is > 100 µM (inactive) in assay [10]; > 100 µM (inactive) in assay [12]; 23.3 µM (inactive) in assay [20]; > 100 µM (inactive) in [13]; > 100 µM (inactive) in assay [14]; > 100 µM (inactive) in assay [16]. The GI50 in [17] and in [18] was > 100 µM (inactive) in each case.
`C#CCCCC(=C)C[C@H](OCc1ccccc1)[C@H]1OC(=O)[C@@H]1C`: the GI50 in [1] was > 100 µM (inactive); in assay [2] it was 44.5 µM (inactive); in [3] it was 81.3 µM (inactive); in [4], 23.9 µM (inactive); in assay [5] it was 20.5 µM (inactive); in assay [6], > 100 µM (inactive). Also, the GI50 in assay [7] was > 100 µM (inactive); in [8], 13.2 µM (inactive); in assay [9], > 100 µM (inactive); in assay [11] it was 39 µM (inactive); in [12], 40.9 µM (inactive); in [20], 14.9 µM (inactive). The GI50 in assay [15] is 72.6 µM (inactive); in [16], 36 µM (inactive); in assay [17], 89.7 µM (inactive); in assay [19], > 100 µM (inactive).
